Reference: ChEMBL document CHEMBL5154887, “Novel CRBN-Recruiting Proteolysis-Targeting Chimeras as Degraders of Stimulator of Interferon Genes with In Vivo Anti-Inflammatory Efficacy” (J Med Chem, 2022)
Calls of active or inactive are those of the source. The calls are words filed in the database; no cut-off is given here.

Columns and labels:
[1] = AUC (0 to t) in Sprague-Dawley rat at 20 mg/kg, po measured upto 48 hrs by UPLC-triple quadrupole MS analysis; type: ADME, organism-based; design: dose 20 mg/kg, time < 48 hrs, route po; settings: in vivo
[2] = Cytotoxicity against mouse C17.2 cells assessed as reduction in cell viability at <10 uM by MTT assay; type: toxicity, cell-based; settings: c17.2, 10 µM
Mus musculus [3] = experiment: Renal protective activity against cisplatin-induced acute kidney injury in C57BL/6J mouse model assessed as clear cortical medullary demarcation at 60 mg/kg, ip by NMR based analysis; type: functional, organism-based
[4] = Tmax in Sprague-Dawley rat at 20 mg/kg, po measured upto 48 hrs by UPLC-triple quadrupole MS analysis; type: ADME, organism-based; settings: in vivo
[5] = Toxicity in C57BL/6J mouse model of cisplatin-induced acute kidney injury assessed as survival rate at 60 mg/kg, ip pretreated for 1 hr followed by cisplatin administration and measured after 72 hrs relative to control; type: organism-based; settings: in vivo, 73 h
[6] = MRT (0 to t) in Sprague-Dawley rat at 20 mg/kg, po measured upto 48 hrs by UPLC-triple quadrupole MS analysis; type: ADME, organism-based; settings: in vivo
[7] = molecular target: T1, Protein cereblon/Stimulator of interferon genes protein (Homo sapiens, UniProt Q96SW2+Q86WV6); experiment: Protac activity at CRBN/STING in human THP-1 cells assessed as increase in STING degradation at 10 uM measured after 4 to 48 hrs by Western blot analysis; type: cell-based; settings: time 4-48 hrs, TDE = time-dependent effect
Target sequence in this assay (Q86WV6 whole entry, looked up): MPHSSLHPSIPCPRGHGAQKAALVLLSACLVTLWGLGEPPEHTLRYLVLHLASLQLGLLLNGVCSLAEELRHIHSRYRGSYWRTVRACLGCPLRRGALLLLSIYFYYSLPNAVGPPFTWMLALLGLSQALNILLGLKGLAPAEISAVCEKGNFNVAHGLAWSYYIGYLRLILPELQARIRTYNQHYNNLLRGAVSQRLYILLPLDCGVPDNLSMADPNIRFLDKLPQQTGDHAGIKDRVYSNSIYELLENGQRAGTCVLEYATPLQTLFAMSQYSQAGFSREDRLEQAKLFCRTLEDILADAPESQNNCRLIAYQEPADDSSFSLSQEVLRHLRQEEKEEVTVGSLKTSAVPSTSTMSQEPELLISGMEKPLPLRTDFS
Target sequence in this assay (Q96SW2 whole entry, looked up): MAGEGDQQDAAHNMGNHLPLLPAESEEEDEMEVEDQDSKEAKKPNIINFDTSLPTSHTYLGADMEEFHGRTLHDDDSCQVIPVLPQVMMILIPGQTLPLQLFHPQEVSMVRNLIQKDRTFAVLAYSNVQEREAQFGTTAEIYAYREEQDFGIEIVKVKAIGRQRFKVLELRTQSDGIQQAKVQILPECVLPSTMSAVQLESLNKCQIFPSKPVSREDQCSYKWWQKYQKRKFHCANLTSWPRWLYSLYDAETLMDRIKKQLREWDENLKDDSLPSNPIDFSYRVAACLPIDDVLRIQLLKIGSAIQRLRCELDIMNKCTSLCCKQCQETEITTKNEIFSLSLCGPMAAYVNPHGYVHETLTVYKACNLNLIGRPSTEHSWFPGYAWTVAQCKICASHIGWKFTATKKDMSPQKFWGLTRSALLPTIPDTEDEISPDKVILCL

[8] = AUC (0 to infinity) in Sprague-Dawley rat at 20 mg/kg, po measured upto 48 hrs by UPLC-triple quadrupole MS analysis; type: ADME, organism-based; design: dose 20 mg/kg, time < 48 hrs, route po; settings: in vivo
[9] = Toxicity in cisplatin-induced acute kidney injury in C57BL/6J mouse model assessed as morphological abnormalities in liver at 30 to 60 mg/kg, ip pretreated for 1 hr followed by cisplatin administration and measured after 72 hrs by H and E staining based analysis; type: organism-based; settings: in vivo, 73 h, dose 30-60 mg/kg
[10] = Renal toxicity in C57BL/6J mouse assessed as reduction in creatinine level at 60 mg/kg, ip (Rvb= 8.5 umol/L); type: organism-based; settings: in vivo
L02 = experiment: Cytotoxicity against human L02 cells assessed as reduction in cell viability at <10 uM by MTT assay; type: toxicity, cell-based; settings: l02, 10 µM
[11] = Toxicity in cisplatin-induced acute kidney injury in C57BL/6J mouse model assessed as morphological abnormalities in heart at 30 to 60 mg/kg, ip pretreated for 1 hr followed by cisplatin administration and measured after 72 hrs by H and E staining based analysis; type: organism-based; settings: in vivo, 73 h, dose 30-60 mg/kg
[12] = Toxicity in cisplatin-induced acute kidney injury in C57BL/6J mouse model assessed as marked inflammatory cell exudation in kidney at 30 to 60 mg/kg, ip pretreated for 1 hr followed by cisplatin administration and measured after 72 hrs by H and E staining based analysis; type: organism-based; settings: in vivo, 73 h, dose 30-60 mg/kg
[13] = molecular target: Stimulator of interferon genes protein (Homo sapiens) (UniProt Q86WV6); experiment: Inhibition of STING pathway in human THP-1 cells assessed as inhibition of cGAMP-triggered pTBK1 expression preincubated for 2 hrs followed by cGAMP stimulation and measured after 24 hrs by Western blot analysis; type: cell-based; settings: dose 0-20 µM, time 26.0 hrs, DDE = dose-dependent effect
[14] = In vivo inhibition of STING signalling pathway in cisplatin-induced acute kidney injury in C57BL/6J mouse model assessed as reduction in STING protein expression in kidney at 30 mg/kg, ip pretreated for 1 hr followed by cisplatin administration and measured after 72 hrs by Western blot analysis (Rvb= 375%); type: functional; design: scale not given: the % may be the effect or the level left; settings: time 73 hrs
Mus musculus [15] = experiment: Renal protective activity against cisplatin-induced acute kidney injury in C57BL/6J mouse model assessed as improvement in renal blood flow velocity at 60 mg/kg, ip by B-mode ultrasound scanner analysis; type: functional, organism-based
Mus musculus [16] = experiment: Antiinflammatory activity against cisplatin-induced acute kidney injury in C57BL/6J mouse model assessed as reduction in ischemic symptoms at 30 mg/kg, ip pretreated for 1 hr followed by cisplatin administration and measured after 72 hrs relative to control; type: functional, organism-based; settings: time 73.0 hrs
[17] = molecular target: Stimulator of interferon genes protein (Homo sapiens) (UniProt Q86WV6); experiment: Inhibition of STING pathway in human THP-1 cells assessed as inhibition of cGAMP-triggered NF-kappaB p-p65 expression preincubated for 2 hrs followed by cGAMP stimulation and measured after 24 hrs by Western blot analysis; type: cell-based; settings: dose 0-20 µM, time 26.0 hrs, DDE = dose-dependent effect
[18] = MRT (0 to infinity) in Sprague-Dawley rat at 2 mg/kg, iv measured upto 48 hrs by UPLC-triple quadrupole MS analysis; type: ADME, organism-based; settings: in vivo
[19] = Toxicity in C57BL/6J mouse model of cisplatin-induced acute kidney injury assessed as survival rate at 30 mg/kg, ip pretreated for 1 hr followed by cisplatin administration and measured after 72 hrs relative to control; type: organism-based; settings: in vivo, 73 h
[20] = Renal toxicity in C57BL/6J mouse assessed as reduction in BUN level at 60 mg/kg, ip (Rvb= 8.9 mmol/L); type: organism-based; settings: in vivo
Mus musculus [21] = experiment: Antiinflammatory activity against cisplatin-induced acute kidney injury in C57BL/6J mouse model assessed as reduction in kidney weight at 60 mg/kg, ip pretreated for 1 hr followed by cisplatin administration and measured after 72 hrs relative to control; type: functional; design: scale not given: the % may be the effect or the level left; settings: time 73 hrs
[22] = Cytotoxicity against mouse C17.2 cells assessed as cell growth inhibition at 30 uM by MTT assay relative to control; type: toxicity, cell-based
[23] = Clearance in Sprague-Dawley rat at 20 mg/kg, po measured upto 48 hrs by UPLC-triple quadrupole MS analysis; type: ADME, organism-based; settings: in vivo
[24] = Cmax in Sprague-Dawley rat at 20 mg/kg, po measured upto 48 hrs by UPLC-triple quadrupole MS analysis; type: ADME, organism-based; design: time < 48 hrs, dose 20 mg/kg, route po; settings: in vivo
[25] = Tmax in Sprague-Dawley rat at 2 mg/kg, iv measured upto 48 hrs by UPLC-triple quadrupole MS analysis; type: ADME, organism-based; settings: in vivo
[26] = Apparent volume of distribution in Sprague-Dawley rat at 2 mg/kg, iv measured upto 48 hrs by UPLC-triple quadrupole MS analysis; type: ADME, organism-based; settings: in vivo, read-out: Vz
[27] = Apparent volume of distribution in Sprague-Dawley rat at 20 mg/kg, po measured upto 48 hrs by UPLC-triple quadrupole MS analysis; type: ADME, organism-based; settings: in vivo
[28] = Half life in Sprague-Dawley rat at 20 mg/kg, po measured upto 48 hrs by UPLC-triple quadrupole MS analysis; type: ADME, organism-based; settings: in vivo
[29] = molecular target: T1, Protein cereblon/Stimulator of interferon genes protein; experiment: Protac activity at CRBN/STING in human THP-1 cells assessed as increase in STING degradation incubated for 48 hrs by Western blot analysis; type: cell-based
Target sequence in this assay (Q96SW2 whole entry): as the sequence (Q96SW2 whole entry, looked up) above
Target sequence in this assay (Q86WV6 whole entry): as the sequence (Q86WV6 whole entry, looked up) above

Sequence of Stimulator of interferon genes protein (Homo sapiens) (Q86WV6 whole entry): as the sequence (Q86WV6 whole entry, looked up) above

In the case of `O=C(/C=C/C(=O)Nc1ccc(NC(=O)c2ccc([N+](=O)[O-])o2)cc1)NCCCCCCNc1cccc2c1C(=O)N(C1CCC(=O)NC1=O)C2=O` (stereo not given), the AUC(0-t) at 48 h [1] is reported as 52.2 ng·h/mL, the Activity [2] is reported as “Non-Toxic” and the Activity (Mus musculus [3]) is reported as “Active”. For the same compound, the Tmax [4] was 3.71 h, the Survival [5] was 100% and the MRT last at 48 h [6] was 7.6 h. The Activity [7] was “Tde”, the AUC(0-inf) [8] was 55.7 ng·h/mL and the Activity [9] was “Non-Toxic”. For the same compound, the Activity [10] was 14.8 µmol/L, the Activity (L02) was “Non-Toxic” and the Activity [11] was “Non-Toxic”. For the same compound, the Activity [12] was “Non-Toxic”, the inhibition [13] was “Dde” and the Activity [14] was 150%. The Activity (Mus musculus [15]) was “Active”, the Activity (Mus musculus [16]) was “Active” and the inhibition [17] was “Dde”. For the same compound, the MRT inf [18] was 1.95 h, the Survival [19] was 89% and the Activity [20] was 16.3 mmol/L. The Activity (Mus musculus [21]) was 26%, the inhibition at 30 µM [22] was 15.6% and the CL/F [23] was 429 L/h/kg. The Cmax [24] was 8.37 ng/mL, the Tmax [25] was 4.98 min and the Vd [26] was 38 L/kg. For the same compound, the Vz [27] was 4480.43 L/kg, the half-life [28] was 7.36 h and the DC50 [29] was 3.2 µM.
